How the values were obtained:
[1] = target: T1, androgen receptor (AR) splicing variant AR-v7 (Homo sapiens, UniProt P10275); assay: Degradation activity on androgen receptor splicing variant AR-v7 in 22RV1 cells (ELISA); format: cell-based; conditions: AR-v7 degradation in 22RV1 cells, 48 h
T1 construct: The degradation activity of compounds on AR-v7 in 22RV1 cells; host or cells: 22RV1 cells
T1 sequence (P10275 1-644 isoform P10275-3): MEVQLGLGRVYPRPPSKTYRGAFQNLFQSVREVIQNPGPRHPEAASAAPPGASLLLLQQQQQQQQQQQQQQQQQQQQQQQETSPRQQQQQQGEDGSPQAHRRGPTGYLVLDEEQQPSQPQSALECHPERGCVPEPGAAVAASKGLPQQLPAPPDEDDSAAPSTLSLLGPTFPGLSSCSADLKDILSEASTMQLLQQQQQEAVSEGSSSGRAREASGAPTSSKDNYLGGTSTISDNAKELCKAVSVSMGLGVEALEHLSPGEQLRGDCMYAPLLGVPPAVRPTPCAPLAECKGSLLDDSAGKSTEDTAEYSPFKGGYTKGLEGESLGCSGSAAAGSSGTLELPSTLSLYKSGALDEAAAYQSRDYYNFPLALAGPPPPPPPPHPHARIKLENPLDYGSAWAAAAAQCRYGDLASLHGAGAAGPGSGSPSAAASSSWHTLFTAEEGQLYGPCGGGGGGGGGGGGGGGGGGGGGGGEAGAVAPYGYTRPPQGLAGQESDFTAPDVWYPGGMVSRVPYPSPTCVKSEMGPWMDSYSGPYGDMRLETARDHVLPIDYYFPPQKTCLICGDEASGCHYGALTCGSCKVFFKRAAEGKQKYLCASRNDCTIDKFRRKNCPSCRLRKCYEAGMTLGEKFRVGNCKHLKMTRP

[2] = Pharmacokinetics in mice (plasma exposure after oral administration); format: in vivo; conditions: ICR mice, oral (i.g.) 3 mg/kg; for AUC(0-inf): mouse, read-out: After oral administration of 3 mg/kg, mouse plasma exposure AUCinf
Experimental: • LC-20AD high performance liquid chromatography (SHIMADZU, Japan) • API4000 triple quadrupole mass spectrometer (Applied Biosystem, USA) • Phenix Winnolin Pharmacokinetic software (Version 6.3, Certara, USA) • High speed freezing centrifuge (Thermo Fisher Scientific) • Analytical balance (Sartorius, SECURA225D-ICN) • ICR mice (Chengdu Dossy Experimental Animals CO., LTD.)
A suitable amount of drug was accurately weighed, and then the medium (5% DMSO, 15% HS-15, 80% DSW) was added to prepare the solution at a concentration of 0.1 mg/ml (i.v.) and 0.3 mg/ml (i.g.).
18 healthy adult ICR mice were divided into two groups (9 mice for i.v. group; 9 mice for i.g. group), and administered by tail vein or by gavage after fasting overnight (free drinking water); using the satellite blood collection method, 3 animals were collected at each time point, and then 0.1 ml of blood obtained at different time points was anticoagulated with EDTA-K2, centrifuged at 4° C. for 5 min to separate the plasma, and stored at −80° C. for detection. The sampling time points after i.v. administration were 5 min, 15 min, 0.5 h, 1 h, 2 h, 4 h, 8 h, 12 h, and 24 h; while the sampling time points for i.g. group were before administration (0 h) as well as 0.5 h, 1 h, 2 h, 4 h, 6 h, 8 h, 12 h, and 24 h after administration. Then, the drug concentration in plasma was determined by LC/MS/MS.

[3] = system: 22RV1 cells; conditions: Homo sapiens, 22Rv1, 144 h, read-out: 22RV1 IC50 (nM), 22RV1 cells, 6 days culture, CCK-8, OD 450 nm

## CC(C)(c1ccc(OCc2ccnc(N3CC4(COC4)C3)n2)cc1)c1ccc(O[C@H]2C[C@H](Nc3ccc4c(c3)C(=O)N(C3CCC(=O)NC3=O)C4=O)C2)cc1 (some centres unmarked) [Example 75]
[1]; class symbols
  DC50: < 10 nM
[2]
  AUC(0-inf): 5000 to 30000 ng·h/mL
[3]
  IC50: 8 nM

## CC(C)(c1ccc(OCc2ccnc(N3CC4(COC4)C3)n2)cc1)c1ccc(O[C@H]2C[C@@H](Nc3ccc4c(c3)C(=O)N(C3CCC(=O)NC3=O)C4=O)C2)cc1 (some centres unmarked) [Example 76, 5-(((1s,3s)-3-(4-(2-(4-((2-(2-oxa-6-azaspiro[3.3]heptane-6-yl)pyrimidin-4-yl)methoxy)phenyl)propan-2-yl)phenoxy)cyclobutyl)amino)-2-(2,6-dioxopiperidin-3-yl)isoindolin-1,3-dione]
[1]; class symbols
  DC50: < 10 nM
[2]
  AUC(0-inf): 1000 to 5000 ng·h/mL
[3]
  IC50: 11 nM

## CC(C)(c1ccc(Oc2ccc(-n3nccn3)nc2)cc1)c1ccc(O[C@H]2C[C@H](Nc3ccc4c(c3)CN(C3CCC(=O)NC3=O)C4=O)C2)cc1 (some centres unmarked) [Example 94]
[1]; class symbols
  DC50: < 10 nM
[2]
  AUC(0-inf): 1000 to 5000 ng·h/mL
[3]
  IC50: 4 nM

## CC(O)c1ncc(Oc2ccc(C(C)(C)c3ccc(O[C@H]4C[C@H](Nc5ccc6c(c5)C(=O)N(C5CCC(=O)NC5=O)C6=O)C4)cc3)cc2)cn1 (some centres unmarked) [Example 118]
[2]
  After oral administration of 3 mg/kg, mouse plasma exposure AUCinf (μg*h/mL): A (30-5 μg*h/mL)
[3]
  IC50: 3 nM

## CC(C)(c1ccc(OCc2ccnc(N3CC4(COC4)C3)n2)cc1)c1ccc(OC2CN(Cc3ccc4c(c3)C(=O)N(C3CCC(=O)NC3=O)C4=O)C2)cc1 (centres unmarked) [Example 148]
[1]; class symbols
  DC50: 101 to 1000 nM
[2]
  AUC(0-inf): 1000 to 5000 ng·h/mL

## CC(C)(c1ccc(Oc2ccnc(-n3nccn3)c2)cc1)c1ccc(O[C@H]2C[C@H](Nc3ccc4c(c3)C(=O)N(C3CCC(=O)NC3=O)C4=O)C2)cc1 (some centres unmarked) [Example 164]
[1]; class symbols
  DC50: 11 to 100 nM
[2]
  AUC(0-inf): 5000 to 30000 ng·h/mL

## Cc1nnc(-c2ccnc(Oc3ccc(C(C)(C)c4ccc(O[C@H]5C[C@H](Nc6ccc7c(c6)C(=O)N(C6CCC(=O)NC6=O)C7=O)C5)cc4)cc3)n2)o1 (some centres unmarked) [Example 171]
[1]; class symbols
  DC50: 11 to 100 nM
[2]
  AUC(0-inf): 5000 to 30000 ng·h/mL

## CC(C)(c1ccc(OCc2ccnc(O[C@@H]3CCNC3)n2)cc1)c1ccc(O[C@H]2C[C@@H](Nc3ccc4c(c3)C(=O)N(C3CCC(=O)NC3=O)C4=O)C2)cc1 (some centres unmarked) [Example 242]
[1]; class symbols
  DC50: 11 to 100 nM
[2]
  AUC(0-inf): 100 to 1000 ng·h/mL

## Cc1noc(-c2cccc(COc3ccc(C(C)(C)c4ccc(O[C@H]5C[C@H](Nc6ccc7c(c6)C(=O)N(C6CCC(=O)NC6=O)C7=O)C5)cc4)cc3)n2)n1 (some centres unmarked) [Example 282]
[1]; class symbols
  DC50: 11 to 100 nM
[2]
  AUC(0-inf): 1000 to 5000 ng·h/mL

## Cc1nnc(-c2ccc(Oc3ccc(C(C)(C)c4ccc(O[C@H]5C[C@H](Nc6ccc7c(c6)C(=O)N(C6CCC(=O)NC6=O)C7=O)C5)cc4)cc3)cc2)o1 (some centres unmarked) [Example 322, 2-(2,6-dioxopiperidin-3-yl)-5-((1r,3r)-3-(4-(2-(4-(4-(5-methyl-1,3,4-oxadiazol-2-yl)phenoxy)phenyl)propan-2-yl)phenoxy)cyclobutyl)aminoisoindolin-1,3-dione]
[1]; class symbols
  DC50: < 10 nM
[2]
  AUC(0-inf): 5000 to 30000 ng·h/mL

## Cc1nnc(-c2ccc(Oc3ccc(C(C)(C)c4ccc(O[C@H]5C[C@H](Nc6ccc7c(c6)C(=O)N(C6CCC(=O)NC6=O)C7=O)C5)cc4)cc3)nn2)o1 (some centres unmarked) [Example 330]
[1]; class symbols
  DC50: 11 to 100 nM
[2]
  AUC(0-inf): 5000 to 30000 ng·h/mL

## C=CC(c1ccc(Oc2ncc(-n3nccn3)cn2)cc1)c1ccc(O[C@H]2C[C@H](Nc3ccc4c(c3)C(=O)N(C3CCC(=O)NC3=O)C4=O)C2)cc1 (some centres unmarked) [Example 370, 5-(((1r,3r)-3-(4-(1-(4-((5-(2H-1,2,3-triazole-2-yl)pyrimidin-2-yl)oxy)phenyl)allyl)phenoxy)cyclobutyl)amino)-2-(2,6-dioxopiperidin-3-yl)isoindolin-1,3-dione]
[1]; class symbols
  DC50: 11 to 100 nM
[2]
  AUC(0-inf): 5000 to 30000 ng·h/mL

## CC(C)(c1ccc(OCc2cccc(-n3ccnn3)n2)cc1)c1ccc(O[C@H]2C[C@H](Nc3ccc4c(c3)C(=O)N(C3CCC(=O)NC3=O)C4=O)C2)cc1 (some centres unmarked) [Example 415]
[1]; class symbols
  DC50: 11 to 100 nM
[2]
  AUC(0-inf): 5000 to 30000 ng·h/mL

## CC(C)(c1ccc(O)cc1)c1ccc(OCCCCCCCCOCCCCNc2ccc3c(c2)C(=O)N(C2CCC(=O)NC2=O)C3=O)cc1 (centres unmarked) [Example 438, 2-(2,6-dioxopiperidin-3-yl)-5-((4-((8-(4-(2-(4-hydroxylphenyl)propan-2-yl)phenoxy)octyl)oxy)butyl)amino)isoindolin-1,3-dione]
[1]; numeric values
  DC50: > 2000 nM
[2]
  AUC(0-inf): 5000 to 30000 ng·h/mL

## CC(C)(c1ccc(OCc2ccnc(-n3cc(F)cn3)n2)cc1)c1ccc(O[C@H]2C[C@@H](Nc3ccc4c(c3)C(=O)N(C3CCC(=O)NC3=O)C4=O)C2)cc1 (some centres unmarked) [Example 460]
[1]; class symbols
  DC50: 11 to 100 nM
[2]
  AUC(0-inf): 100 to 1000 ng·h/mL

## Cc1nnc(-c2cnc(Oc3ccc(C(C)(C)c4ccc(O[C@H]5C[C@H](Nc6ccc7c(c6)C(=O)N(C6CCC(=O)NC6=O)C7=O)C5)cc4)cc3)nc2)o1 (some centres unmarked) [Example 475, 2-(2,6-dioxopiperidin-3-yl)-5-(((1r,3r)-3-(4-(2-(4-((5-(5-methyl-1,3,4oxadiazol-2-yl)pyrimidin-2-yl)oxy)phenyl)propan-2-yl)phenoxy)cyclobutyl)amino)isoindolin-1,3-dione]
[1]; class symbols
  DC50: 11 to 100 nM
[2]
  AUC(0-inf): 5000 to 30000 ng·h/mL

## CC(C)(c1ccc(OCc2ccnc(N3CC4(COC4)C3)n2)cc1)c1ccc(C(=O)NCCNc2ccc3c(c2)C(=O)N(C2CCC(=O)NC2=O)C3=O)cc1 (centres unmarked) [Example 501]
[1]; class symbols
  DC50: 11 to 100 nM
[2]
  AUC(0-inf): 1000 to 5000 ng·h/mL

## CC(C)(c1ccc(OCc2ccnc(N3CC4(COC4)C3)n2)cc1)c1ccc(C(=O)Nc2ccc3c(c2)C(=O)N(C2CCC(=O)NC2=O)C3=O)cc1 (centres unmarked) [Example 504, 4-(2-(4-((2-(2-oxa-6-azaspiro[3.3]heptan-6-yl)pyrimidin-4-yl)methoxy)phenyl)propan-2-yl)-N-(2-(2,6-dioxopiperidin-3-yl)-1,3-dioxoisoindolin-5-yl)benzamide]
[1]; class symbols
  DC50: 101 to 1000 nM
[2]
  AUC(0-inf): 100 to 1000 ng·h/mL

## O=C1CCC(N2C(=O)c3ccc(N[C@H]4C[C@H](Oc5ccc(Cc6ccc(Oc7cnc(-n8ccnn8)nc7)cc6)cc5)C4)cc3C2=O)C(=O)N1 (some centres unmarked) [Example 521]
[1]; class symbols
  DC50: 11 to 100 nM
[2]
  AUC(0-inf): 5000 to 30000 ng·h/mL

## CC(=O)c1nccc(COc2ccc(C(C)(C)c3ccc(OC4CN(c5ccc6c(c5)C(=O)N(C5CCC(=O)NC5=O)C6=O)C4)cc3)cc2)n1 (centres unmarked) [Example 558]
[1]; numeric values
  DC50: > 10000 nM
[2]
  AUC(0-inf): 5000 to 30000 ng·h/mL

## Cc1noc(-c2ccc(Oc3ccc(C(C)(C)c4ccc(O[C@H]5C[C@H](Nc6ccc7c(c6)C(=O)N(C6CCC(=O)NC6=O)C7=O)C5)cc4)cc3)cn2)n1 (some centres unmarked) [Example 582]
[1]; class symbols
  DC50: 11 to 100 nM
[2]
  AUC(0-inf): 1000 to 5000 ng·h/mL

## Cc1nsc(Oc2ccc(C(C)(C)c3ccc(O[C@H]4C[C@H](Nc5ccc6c(c5)C(=O)N(C5CCC(=O)NC5=O)C6=O)C4)cc3)cc2)n1 (some centres unmarked) [Example 591, 2-(2,6-dioxopiperidin-3-yl)-5-((1r,3r)-3-(4-(2-(4-((3-methyl-1,2,4-thiadiazol-5-yl)oxy)phenyl)propan-2-yl)phenoxy)cyclobutyl)aminoisoindolin-1,3-dione]
[1]; class symbols
  DC50: 11 to 100 nM
[2]
  AUC(0-inf): 5000 to 30000 ng·h/mL

## Cc1nnc(-c2nnc(Oc3ccc(C(C)(C)c4ccc(O[C@H]5C[C@H](Nc6ccc7c(c6)C(=O)N(C6CCC(=O)NC6=O)C7=O)C5)cc4)cc3)s2)o1 (some centres unmarked) [Example 593]
[1]; class symbols
  DC50: 11 to 100 nM
[2]
  AUC(0-inf): 5000 to 30000 ng·h/mL

## Cc1nc(-c2cnc(Oc3ccc(C(C)(C)c4ccc(O[C@H]5C[C@@H](Nc6ccc7c(c6)C(=O)N(C6CCC(=O)NC6=O)C7=O)C5)cc4)cc3)cn2)no1 (some centres unmarked) [Example 598, 2-(2,6-dioxopiperidin-3-yl)-5-(((1s,3s)-3-(4-(2-(4-((5-(5-methyl-1,2,4-oxadiazol-3-yl)pyrazin-2-yl)oxy)phenyl)propan-2-yl)phenoxy)cyclobutyl)amino)isoindolin-1,3-dione]
[1]; class symbols
  DC50: 11 to 100 nM
[2]
  AUC(0-inf): 5000 to 30000 ng·h/mL

## Cc1nc(-c2cncc(Oc3ccc(C(C)(C)c4ccc(O[C@H]5C[C@@H](Nc6ccc7c(c6)C(=O)N(C6CCC(=O)NC6=O)C7=O)C5)cc4)cc3)n2)no1 (some centres unmarked) [Example 599]
[1]; class symbols
  DC50: 11 to 100 nM
[2]
  AUC(0-inf): 5000 to 30000 ng·h/mL
